Experimental data: patent US8815857B2 (Boehringer Ingelheim International GmbH, priority 2011, dated 2014)
Converted amounts (≈) assume the structure as drawn.

Tests used:
[1] = molecular target: T1, Recombinant human soluble guanylate cyclase (sGC), alpha 1 / beta 1 subunits, heme-free (Homo sapiens, UniProt Q02108+Q02153); assay: Molecular assay: cGMP formation by heme-free recombinant sGC (CisBio cGMP detection kit); type: biochemical; settings: 300 pM heme-free sGC, 37° C., 60 min, cGMP readout; read-out: EC50 nM, Activity of Compounds in Molecular Assay
T1 construct: histidine tag (C); made in house; host or cells: Sf9 insect cells (baculovirus coinfection)
T1 sequence (Q02108 1-690 partner): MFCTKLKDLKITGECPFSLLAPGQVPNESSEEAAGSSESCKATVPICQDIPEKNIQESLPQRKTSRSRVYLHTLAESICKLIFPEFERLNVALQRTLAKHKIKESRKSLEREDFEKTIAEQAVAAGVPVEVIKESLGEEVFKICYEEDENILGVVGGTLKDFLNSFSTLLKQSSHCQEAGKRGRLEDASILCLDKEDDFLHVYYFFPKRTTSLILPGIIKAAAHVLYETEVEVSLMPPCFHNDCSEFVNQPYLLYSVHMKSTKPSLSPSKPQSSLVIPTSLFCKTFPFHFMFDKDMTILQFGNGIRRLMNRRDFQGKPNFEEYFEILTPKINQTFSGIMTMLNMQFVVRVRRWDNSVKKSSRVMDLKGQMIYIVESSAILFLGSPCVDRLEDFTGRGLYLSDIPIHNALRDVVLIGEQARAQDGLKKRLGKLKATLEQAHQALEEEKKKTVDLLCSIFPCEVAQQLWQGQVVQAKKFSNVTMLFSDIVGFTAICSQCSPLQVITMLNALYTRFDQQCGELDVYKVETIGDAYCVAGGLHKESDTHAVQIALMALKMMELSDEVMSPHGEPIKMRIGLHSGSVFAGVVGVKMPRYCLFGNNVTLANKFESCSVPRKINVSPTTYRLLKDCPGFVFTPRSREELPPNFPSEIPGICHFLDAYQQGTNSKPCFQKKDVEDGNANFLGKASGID
T1 sequence (Q02153 1-619): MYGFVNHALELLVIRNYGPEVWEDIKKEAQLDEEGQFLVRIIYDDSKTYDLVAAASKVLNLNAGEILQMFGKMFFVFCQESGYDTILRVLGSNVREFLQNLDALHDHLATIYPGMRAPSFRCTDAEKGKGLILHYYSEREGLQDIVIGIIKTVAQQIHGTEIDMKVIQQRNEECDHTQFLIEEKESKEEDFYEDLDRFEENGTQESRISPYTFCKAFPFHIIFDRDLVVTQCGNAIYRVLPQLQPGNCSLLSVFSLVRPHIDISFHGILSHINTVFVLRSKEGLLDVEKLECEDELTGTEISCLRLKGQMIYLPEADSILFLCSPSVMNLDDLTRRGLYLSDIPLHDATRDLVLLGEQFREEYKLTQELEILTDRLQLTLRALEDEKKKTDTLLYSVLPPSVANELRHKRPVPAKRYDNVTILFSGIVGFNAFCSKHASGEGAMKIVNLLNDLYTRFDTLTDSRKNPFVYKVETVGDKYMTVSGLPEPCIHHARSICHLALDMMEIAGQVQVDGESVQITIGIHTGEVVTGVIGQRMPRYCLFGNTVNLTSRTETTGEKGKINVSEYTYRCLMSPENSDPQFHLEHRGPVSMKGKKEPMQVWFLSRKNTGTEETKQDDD
Description: Recombinant human soluble guanylate cyclase (sGC) is purified from Sf9 insect cells coinfected with baculoviruses expressing the alpha 1 or beta 1 subunit of sGC, both with a C-terminal histidine tag. Heme-free sGC is prepared by treating cell lysate with a final concentration of 0.5% Tween 20 prior to purification on a nickel affinity column.
sGC catalyzes the conversion of guanosine-5′-triphosphate (GTP) to cyclic guanosine monophosphate (cGMP). The activity of sGC is measured in vitro using the commercially available CisBio cGMP detection kit (catalog # 62GM2PEB) in a 384 well format. In brief, 300 pM heme-free sGC is incubated in reaction buffer (50 mM MOPS pH 6.8, 0.2 N KOH, 50 mM NaCl, 2 mM MgCl2, 0.1% BSA, 1.25 mM IBMX, 0.25 mM TCEP, 50 nM GTP) in the presence or absence of dilutions of test compounds diluted in DMSO (final concentration of 1%) in a volume of 10 microL at 37° C. for 60 min. Undiluted reaction products or an 80-fold dilution of reaction products (10 microL of either) prepared in reaction buffer containing 0.2 mM TCEP and 10 mM EDTA is mixed with 5 microL of d2-cGMP plus 5 microL of Eu^3+ cryptate-labeled anti-cGMP, each diluted in buffer containing 0.1 M KPO4 pH 7.5, 0.4 M KF, 20 mM EDTA, 0.2% BSA. After a one h incubation at room temperature in the dark, the mixtures are quantified on an EnVision plate reader (PerkinElmer) according to manufacturer instructions (laser excitation 337 nm, emission 620 and 665 nm). The ratio at each compound concentration is converted to nM cGMP using the linear portion of a calibration curve. Log compound concentration is plotted against combined undiluted and diluted nM cGMP values to determine the EC50 for each curve.

[2] = Assessment of solubility: HT solubility in pION buffer, UV spectrophotometry; settings: pION system solution buffer, kinetic from dmso stock, 16-19 h incubation, 1.0% DMSO
Description: Solubility is measured by the following method.
DMSO stock samples at 10 mM concentration are prepared. […] The samples are pierced and 100 ul of thawed samples are transferred into the PCR plate for analysis. Each sample is run in duplicate at each pH (pH 4.5 and 7.4). Up to 95 samples can be run in replicate at 2 pH's+1 DMSO (blank).
Preparation of pH 4.5 and 7.4 Buffers:
• pH 4.5 buffer:—To 12.5 of system solution (pION)qs to 500 mL of distilled water (pH 2.85-2.90); adjust the pH to pH 4.5 with 0.5 N NaOH. • pH 7.4 buffer: To 12.5 of system solution (pION)qs to 500 mL of distilled water (pH 2.85-2.90); adjust the pH to pH 7.4 with 0.5N NaOH. […] Procedure: Preparation of UV Blank Plate:
75 ul of buffer (pH 7.4 or pH 4.5) is added to UV plate followed by addition of 70 ul of N-propanol. The solution is mixed and the blank spectrum is read using spectrophotometer.
Preparation of Reference UV Plate:
10 ul of each stock sample (including DMSO control) is added to 190 ul of N-propanol to prepare the reference stock plate. Reference stock samples are mixed and 5 ul of each stock sample is added to UV blank plate after it is read spectrophotometrically. The reference stock sample is mixed with blank solution in UV plate and the reference spectrum is read using UV spectrophotometer.
Preparation of Sample for Incubation:
Solubility at pH 7.4:6 ul of each stock sample (including DMSO control) is added to the storage plate containing 600 ul of pH 7.4 buffer, mixed and incubated for 16-19 h. The plate is sealed well during the incubation process. The DMSO content in the sample is 1.0%. The concentration in deep well plates is 100 uM
6 ul of each stock sample (including DMSO control) is added to the deep well plate containing 600 ul of pH 4.5 buffer, mixed and incubated for 16-19 h. The plate is sealed well during the incubation process. The DMSO content in the sample is 1.0%. The concentration in deep well plates is 100 uM
Preparation of Sample UV Plate:
At the end of the incubation period, 100 uL of sample from the storage plate is vacuum filtered using a filter plate. This step wets the filters and the filtrate is discarded. Another 200 ul of the sample from the deep well plate is vacuum filtered using the same filter block but a clean filter plate. 75 ul of the filtrate from the filter plate is transferred to a UV sample plate. 75 ul of N-propanol is added to this UV plate. The solution is mixed and the spectrum is read using the UV spectrophotometer.
The spectra collected for blank, reference and sample from 250-498 nm is analyzed using pION software. If the sample precipitates out, the solubility is reported as XX μg/ml.

[3] = pH 4.5, pH 4.5, aqueous buffer, Solubility (pH 4.5), pH 4.5 buffer
[4] = pH 7.4, pH 7.4, aqueous buffer, Solubility (pH 7.4), pH 7.4 buffer

SMILES	EC50 [1] [nM]	solubility [2, 3] [µg/mL]	solubility [2, 4] [µg/mL]
Cc1cc(C(=O)N2CCCCC2)ccc1COc1ccccc1-c1csc(N2CCC(C(=O)O)C(C)C2)n1 (stereo not drawn) [Compound 42]	51	0.45 (≈ 0.843 µM)	> 53
Cc1cc(CN2CCS(=O)(=O)CC2)ccc1COc1ccccc1-c1csc(N2CC3C(C2)C3C(=O)O)n1 (stereo not drawn) [Compound 82]	3100	12 (≈ 21.7 µM)	> 55
Cc1ccc(OCc2ccc(CN3CCOCC3)cc2C)c(-c2csc(N3CC[C@@H](C(=O)O)[C@@H](C)C3)n2)c1 (single isomer, unassigned) [Compound 50]	520	18 (≈ 33.6 µM)	> 53
Cc1cc(CN2CCCC(O)C2)ccc1COc1c(C)cccc1-c1csc(N2CCC(C(=O)O)CC2)n1 (stereo not drawn) [Compound 53]	640	> 53	> 53
Cc1ccc(OCc2ccc(CN3CCOCC3)cc2C)c(-c2csc(N3CCC(F)(C(=O)O)CC3)n2)c1 [Compound 60]	1200	> 58	> 58
Cc1cc(CN2CCC(O)CC2)ccc1COc1c(C)cccc1-c1csc(N2CCC(C(=O)O)CC2)n1 [Compound 54]	2000	16 (≈ 29.9 µM)	16 (≈ 29.9 µM)
Cc1cc(CN2CCOCC2)ccc1COc1ccc(C#N)cc1-c1csc(N2CCC(C(=O)O)C(C)C2)n1 (stereo not drawn) [Compound 72]	4.8	0.5 (≈ 0.915 µM)	> 54
Cc1ccc(OCc2ccc(C(=O)N3CCCCC3)cc2C)c(-c2csc(N3CCC(C(=O)O)CC3)n2)c1 [Compound 39]	27	0.95 (≈ 1.78 µM)	> 53
Cc1cc(C(=O)N2CCCCC2)ccc1COc1c(-c2csc(N3CCC(C(=O)O)CC3)n2)cccc1C(F)(F)F [Compound 126]	46	0.15 (≈ 0.255 µM)	> 58
Cc1cc(C(=O)N2CCCCC2)ccc1COc1ccc(F)cc1-c1csc(N2CCC(C(=O)O)C(C(F)(F)F)C2)n1 (stereo not drawn) [Compound 145]	650	0.25 (≈ 0.413 µM)	> 60
Cc1cc(CN2CCS(=O)(=O)CC2)ccc1COc1ccc(C#N)cc1-c1csc(N2C3CCC2CC(C(=O)O)C3)n1 (stereo not drawn) [Compound 147]	1200	1 (≈ 1.65 µM)	> 60
Cc1cc(C(=O)N2CCCCC2)ccc1COc1ccc(F)cc1-c1csc([C@H]2CC[C@@H](C(=O)O)CC2)n1 [Compound 56]	1600	0.2 (≈ 0.373 µM)	29 (≈ 54 µM)
Cc1ccc(OCc2ccc(CN3CCOCC3)cc2C)c(-c2csc(N3CCCC(C(=O)O)C3)n2)c1 (stereo not drawn) [Compound 22]	1600	> 63	> 63
Cc1cc(C(=O)N2CCCCC2)ccc1COc1ccccc1-c1csc(N2C3CCC2CC(C(=O)O)C3)n1 (stereo not drawn) [Compound 68]	43	1.2 (≈ 2.2 µM)	> 54
Cc1ccc(OCc2ccc(CNC3CCCCC3)cc2C)c(-c2csc(N3CCC(C(=O)O)CC3)n2)c1 [Compound 45]	730	> 64	35 (≈ 65.6 µM)
